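Briefly, cells in 96-well plates were exposed to five compound concentrations for 48 h, and endpoints were estimated by linear interpolation. At the TGI there is no net growth.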
What was measured:
Experiment in all cases: growth of human tumour cells (NCI), 48 h
786-0 renal = tested on: 786-0 renal
A549 NSCLC = tested on: A549 NSCLC
CAKI-1 renal = tested on: CAKI-1 renal
CCRF-CEM leukemia = tested on: CCRF-CEM leukemia
COLO 205 colon = tested on: COLO 205 colon
DU-145 prostate = tested on: DU-145 prostate
EKVX NSCLC = tested on: EKVX NSCLC
HCC-2998 colon = tested on: HCC-2998 colon
HCT-15 colon = tested on: HCT-15 colon
HL-60(TB) leukemia = tested on: HL-60(TB) leukemia
HOP-62 NSCLC = tested on: HOP-62 NSCLC
HT29 colon = tested on: HT29 colon
IGROV1 ovarian = tested on: IGROV1 ovarian
K-562 leukemia = tested on: K-562 leukemia
KM12 colon = tested on: KM12 colon
LOX IMVI melanoma = tested on: LOX IMVI melanoma
M14 melanoma = tested on: M14 melanoma
MALME-3M melanoma = tested on: MALME-3M melanoma
MCF7 breast = tested on: MCF7 breast
MDA-N = tested on: MDA-N
MOLT-4 leukemia = tested on: MOLT-4 leukemia
NCI-H23 lung = tested on: NCI-H23 lung
OVCAR-8 ovarian = tested on: OVCAR-8 ovarian
PC-3 prostate = tested on: PC-3 prostate
RPMI-8226 leukemia = tested on: RPMI-8226 leukemia
SF-268 CNS = tested on: SF-268 CNS
SF-295 CNS = tested on: SF-295 CNS
SK-MEL-28 melanoma = tested on: SK-MEL-28 melanoma
SK-MEL-5 melanoma = tested on: SK-MEL-5 melanoma
SK-OV-3 ovarian = tested on: SK-OV-3 ovarian
SN12C renal = tested on: SN12C renal
SNB-75 CNS = tested on: SNB-75 CNS
SR leukemia = tested on: SR leukemia
SW-620 colon = tested on: SW-620 colon
T-47D breast = tested on: T-47D breast
TK-10 renal = tested on: TK-10 renal
UACC-257 melanoma = tested on: UACC-257 melanoma
UACC-62 melanoma = tested on: UACC-62 melanoma
A498 renal = tested on: A498 renal
ACHN renal = tested on: ACHN renal
HCT-116 colon = tested on: HCT-116 colon
HOP-92 NSCLC = tested on: HOP-92 NSCLC
HS 578T breast = tested on: HS 578T breast
MDA-MB-231 breast = tested on: MDA-MB-231 breast
MDA-MB-435 = tested on: MDA-MB-435
NCI-H226 lung = tested on: NCI-H226 lung
NCI-H460 lung = tested on: NCI-H460 lung
NCI-H522 lung = tested on: NCI-H522 lung
NCI/ADR-RES ovarian = tested on: NCI/ADR-RES ovarian
OVCAR-3 ovarian = tested on: OVCAR-3 ovarian
OVCAR-4 ovarian = tested on: OVCAR-4 ovarian
OVCAR-5 ovarian = tested on: OVCAR-5 ovarian
RXF 393 renal = tested on: RXF 393 renal
SF-539 CNS = tested on: SF-539 CNS
SK-MEL-2 melanoma = tested on: SK-MEL-2 melanoma
SNB-19 CNS = tested on: SNB-19 CNS
U251 CNS = tested on: U251 CNS
UO-31 renal = tested on: UO-31 renal

Compound: COc1ccc(C2=C(OC(=O)N(C)C)c3cccn3-c3cc(C(F)(F)F)ccc3S2)cc1
- TGI (786-0 renal): > 10 µM
- TGI (A549 NSCLC): > 10 µM
- TGI (CAKI-1 renal): > 10 µM
- TGI (CCRF-CEM leukemia): > 10 µM
- TGI (COLO 205 colon): > 10 µM
- TGI (DU-145 prostate): > 10 µM
- TGI (EKVX NSCLC): > 10 µM
- TGI (HCC-2998 colon): > 10 µM
- TGI (HCT-15 colon): > 10 µM
- TGI (HL-60(TB) leukemia): > 10 µM
- TGI (HOP-62 NSCLC): > 10 µM
- TGI (HT29 colon): > 10 µM
- TGI (IGROV1 ovarian): > 10 µM
- TGI (K-562 leukemia): > 10 µM
- TGI (KM12 colon): > 10 µM
- TGI (LOX IMVI melanoma): > 10 µM
- TGI (M14 melanoma): > 10 µM
- TGI (MALME-3M melanoma): > 10 µM
- TGI (MCF7 breast): > 10 µM
- TGI (MDA-N): > 10 µM
- TGI (MOLT-4 leukemia): > 10 µM
- TGI (NCI-H23 lung): > 10 µM
- TGI (OVCAR-8 ovarian): > 10 µM
- TGI (PC-3 prostate): > 10 µM
- TGI (RPMI-8226 leukemia): > 10 µM
- TGI (SF-268 CNS): > 10 µM
- TGI (SF-295 CNS): > 10 µM
- TGI (SK-MEL-28 melanoma): > 10 µM
- TGI (SK-MEL-5 melanoma): > 10 µM
- TGI (SK-OV-3 ovarian): > 10 µM
- TGI (SN12C renal): > 10 µM
- TGI (SNB-75 CNS): > 10 µM
- TGI (SR leukemia): > 10 µM
- TGI (SW-620 colon): > 10 µM
- TGI (T-47D breast): > 10 µM
- TGI (TK-10 renal): > 10 µM
- TGI (UACC-257 melanoma): > 10 µM
- TGI (UACC-62 melanoma): > 10 µM

Compound: Cc1ccc(F)cc1NC(=O)O/N=C(\Cl)C(C)C
- TGI (786-0 renal): 15.7 µM
- TGI (A498 renal): 40.9 µM
- TGI (A549 NSCLC): 38.2 µM
- TGI (ACHN renal): 4.41 µM
- TGI (CAKI-1 renal): 3.09 µM
- TGI (CCRF-CEM leukemia): > 39.5 µM
- TGI (COLO 205 colon): 3.74 µM
- TGI (DU-145 prostate): 33.5 µM
- TGI (EKVX NSCLC): 15.5 µM
- TGI (HCC-2998 colon): 34.4 µM
- TGI (HCT-116 colon): 35.3 µM
- TGI (HCT-15 colon): 3.66 µM
- TGI (HL-60(TB) leukemia): > 21.2 µM
- TGI (HOP-62 NSCLC): 37.2 µM
- TGI (HOP-92 NSCLC): 7.07 µM
- TGI (HS 578T breast): > 65.6 µM
- TGI (HT29 colon): 37 µM
- TGI (IGROV1 ovarian): 33.6 µM
- TGI (K-562 leukemia): 5.72 µM
- TGI (KM12 colon): 34.8 µM
- TGI (LOX IMVI melanoma): 4.79 µM
- TGI (M14 melanoma): 12.2 µM
- TGI (MALME-3M melanoma): 16 µM
- TGI (MCF7 breast): 20.8 µM
- TGI (MDA-MB-231 breast): 32.8 µM
- TGI (MDA-MB-435): 32.2 µM
- TGI (MDA-N): 11.8 µM
- TGI (MOLT-4 leukemia): 4.83 µM
- TGI (NCI-H226 lung): 28.5 µM
- TGI (NCI-H23 lung): > 56.9 µM
- TGI (NCI-H460 lung): 86 µM
- TGI (NCI-H522 lung): 2.13 µM
- TGI (NCI/ADR-RES ovarian): 27.2 µM
- TGI (OVCAR-3 ovarian): 13.9 µM
- TGI (OVCAR-4 ovarian): 33.1 µM
- TGI (OVCAR-5 ovarian): 31.7 µM
- TGI (OVCAR-8 ovarian): 35.9 µM
- TGI (PC-3 prostate): 33.4 µM
- TGI (RPMI-8226 leukemia): 4 µM
- TGI (RXF 393 renal): 9.51 µM
- TGI (SF-268 CNS): 62.8 µM
- TGI (SF-295 CNS): > 61.1 µM
- TGI (SF-539 CNS): 18.1 µM
- TGI (SK-MEL-2 melanoma): 35.4 µM
- TGI (SK-MEL-28 melanoma): 38 µM
- TGI (SK-MEL-5 melanoma): 24.1 µM
- TGI (SK-OV-3 ovarian): 36.9 µM
- TGI (SN12C renal): 11.4 µM
- TGI (SNB-19 CNS): > 56.8 µM
- TGI (SNB-75 CNS): 35.7 µM
- TGI (SW-620 colon): 3.18 µM
- TGI (T-47D breast): 33.6 µM
- TGI (TK-10 renal): 15 µM
- TGI (U251 CNS): > 56.4 µM
- TGI (UACC-257 melanoma): 46.7 µM
- TGI (UACC-62 melanoma): 39.7 µM
- TGI (UO-31 renal): 23.2 µM
